# Assay results reported in the SangsterLogP compilation.
row,Compound,logP
1,O=C(NC(O)C(=O)O)OCc1ccccc1 (centres undefined),1.63
2,CC(=O)NC(C)C(=O)NCCC(C)C (centres undefined),0.88
3,CC(NC(=O)OCc1ccccc1)C(=O)NCc1ccccc1 (centres undefined),3.52
4,CC(=O)N1CCC[C@@H]1C(=O)NCc1ccccc1,1.46
5,CC(=O)N1CSCC1C(=O)NCc1ccccc1 (centres undefined),1.29
6,CC(=O)NC(CC(C)C)C(=O)NCc1ccccc1 (centres undefined),2.31
7,CC(C(=O)NCc1ccccc1)N(C)C(=O)OC(C)(C)C (centres undefined),2.94
8,CC(=O)NCCCC(=O)NCc1ccccc1,1.01
9,CC(NC(=O)OCc1ccccc1)C(=O)OCc1ccccc1 (centres undefined),3.84
10,CN[C@H](C)C(=O)NCc1ccc(OC)cc1,1.11
11,CC(C(=O)NCc1ccccc1)N(C)C (centres undefined),1.73
12,CC(=O)N(C)CC(=O)NCc1ccccc1,0.94
13,CC(=O)N(C)C(C)C(=O)NCc1ccco1 (centres undefined),-0.55
14,CC(=O)NC(CCCNC(=N)N[N+](=O)[O-])C(=O)NCc1ccccc1 (centres undefined),0.45
15,CCCCNC(=O)C(C)NC(C)=O (centres undefined),0.55
16,CC(=O)NC(Cc1ccc(Cl)cc1)C(=O)NCc1ccccc1 (centres undefined),3.72
17,CC(=O)N(C)C(C)C(=O)NCc1ccccc1 (centres undefined),1.48

# Further lines, results first:
row,logP,Compound
1,1.51,CN[C@H](C)C(=O)NCc1ccc(F)cc1
2,0.56,CC(=O)NC(C)C(=O)NCC(C)C (centres undefined)
3,-0.66,CNC(C)C(=O)NCc1ccco1 (centres undefined)
4,2.17,CC(=O)N[C@@H](Cc1c[nH]c2ccccc12)C(=O)NCc1ccccc1
5,1.32,CC(=O)NC(C)(C)C(=O)NCc1ccccc1
6,0.76,CC(=O)NCCC(=O)NCc1ccccc1
7,0.05,CNC(C)C(=O)NCc1cccnc1 (centres undefined)
8,1.12,CC(=O)N(C)CCC(=O)NCc1ccccc1
9,1.85,CN1CSCC1C(=O)NCc1ccccc1 (centres undefined)
10,6.39,O=C(NC(CCC1CCCCC1)C(=O)OCCC1CCCCC1)OCc1ccccc1 (centres undefined)
11,1.01,CNCCC(=O)NCc1ccccc1
12,1.71,CCNC(C)C(=O)NCc1ccccc1 (centres undefined)
